Reference: the METLIN SMRT retention time set (Domingo-Almenara et al. 2019)

Assay: gradient 5% acetonitrile 3 min, to 50% in 2 min, to 85% in 15 min, held 3 min, 100 µL/min
Settings: column: Zorbax Extend-C18 2.1 x 50 mm; eluents: water / acetonitrile, 0.1% formic acid
In short: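 Data were gathered over 3 months by HPLC coupled to a quadrupole time-of-flight mass spectrometer, operated in positive and negative ionization mode. Mixtures of ~100 pure standards ran on a Zorbax Extend-C18 column (2.1 × 50 mm, 1.8 μm) at 100 μL/min, with water and acetonitrile each containing 0.1% formic acid and dead and dwell volumes of 40 μL and 900 μL. Retention time was read from adduct peaks picked by computer and checked manually.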

Cc1ccc(NS(=O)(=O)c2cc3n(c2)CCCNC3=O)cc1C
RP-LC retention time: 658 s

CCn1cc(-c2ccc(C)cc2)cc1C(=O)NCCOC
RP-LC retention time: 919 s

CCOc1ccc(NC(=O)Cn2ncc3c(N4CCN(c5ccccn5)CC4)ncnc32)cc1
RP-LC retention time: 624 s

COc1cc(OC)cc(-c2nnc(Cc3nc(-c4cccc(C)c4)no3)o2)c1
RP-LC retention time: 1080 s

Cn1c(C(=O)N2CCN(c3ccccn3)CC2)cc2sccc21
RP-LC retention time: 598 s

CCOC(=O)c1cnc2nc(-c3ccccc3Cl)nn2c1C
RP-LC retention time: 945 s

COc1ccc(-c2noc(C3CCCN3C(=O)Nc3cc(C)ccc3C)n2)cc1 (centres undefined)
RP-LC retention time: 1020 s

Cc1ccc(C)c(NC(=O)Nc2c(-c3ccc(F)cc3)nc3ccccn23)c1
RP-LC retention time: 697 s

COc1cc(-c2noc(C3CC(=O)N(c4ccc(C)cc4C)C3)n2)cc(OC)c1OC (centres undefined)
RP-LC retention time: 938 s

O=C(CNC(=O)c1ccccc1)Nc1nc2ccccc2[nH]1
RP-LC retention time: 598 s

CCc1ccccc1NS(=O)(=O)c1c(C)sc(C)c1-c1cc(C(F)(F)F)on1
RP-LC retention time: 1240 s

CC1=C(c2ccc(C)cc2)S(=O)(=O)N=C1N1CCCN(C(=O)Cc2cccnc2)CC1
RP-LC retention time: 624 s

O=C(Cn1ncc2c(c1=O)N(CC1CC1)C(=O)CS2)NCc1ccc(F)cc1
RP-LC retention time: 750 s

Cc1cc(=O)n(CC(=O)Nc2cc(F)ccc2F)c(-c2ccc(F)cc2)n1
RP-LC retention time: 1090 s

Cc1ccc(-c2csc(Nc3ccc(Br)cn3)n2)c(C)c1
RP-LC retention time: 1330 s

CN(C)C(=O)c1cn(C2CN(C(=O)c3ccc(C#N)cc3)C2)nn1
RP-LC retention time: 624 s

CCOC(=O)C1CCCN(C(=O)C2c3cc(OC)c(OC)cc3C(=O)N(C)C2c2cccs2)C1 (centres undefined)
RP-LC retention time: 787 s

Cc1cc(C)cc(Nc2c(-c3cccc(O)c3)nc3cnccn23)c1
RP-LC retention time: 763 s

CCS(=O)(=O)c1nc2ccc(NS(=O)(=O)c3ccccc3)cc2s1
RP-LC retention time: 838 s

O=C(Cc1cc(-c2cc3ccccc3o2)on1)NCCC1=CCCCC1
RP-LC retention time: 1060 s

N#Cc1ccccc1NC(=O)CSc1cc(N2CCN(c3ccccc3F)CC2)ncn1
RP-LC retention time: 1120 s

Cc1ccc(NC(=O)Nc2cccn3ncnc23)cc1
RP-LC retention time: 776 s

O=C(NC1CCCC1)C1CCCN(c2nccnc2Sc2ccccc2)C1 (centres undefined)
RP-LC retention time: 1020 s

CCOC(=O)c1noc2ncnc(NCc3ccc(C)cc3)c12
RP-LC retention time: 936 s

CC(C(=O)Nc1cccc(Cl)c1)C1CCN(C(=O)Nc2ccc(F)cc2)CC1 (centres undefined)
RP-LC retention time: 933 s

O=C(Cn1c(=O)c2cc(C3CC3)nn2c2ncccc21)NCc1ccccc1Cl
RP-LC retention time: 766 s

COc1ccc(-c2nc3cc(C)ccn3c2Nc2ccc3c(c2)OCO3)cc1
RP-LC retention time: 646 s

COc1cccc(NC(=O)N2CCCC(Cn3cnc4cccnc43)C2)c1 (centres undefined)
RP-LC retention time: 653 s

CN1C(=O)c2cc(S(=O)(=O)NC3CCCCCC3)ccc2Oc2cccnc21
RP-LC retention time: 1000 s

CCc1nc2ccc(-c3noc(-c4cccs4)n3)cc2n1CC
RP-LC retention time: 702 s

CCc1nc2cc(-c3noc(-c4sccc4C)n3)ccc2o1
RP-LC retention time: 1210 s

Cc1ccc(NC(=O)C2CCCN2S(=O)(=O)c2cc3c(cc2C)NC(=O)C(C)O3)cc1 (centres undefined)
RP-LC retention time: 794 s

Cc1ccc(NC(=O)Cn2cc3c(n2)CCC(C)C3)c(Cl)c1 (centres undefined)
RP-LC retention time: 1110 s

CC(C)OCCCNC(=O)c1cc2n(n1)CCCN(Cc1ccc(Cl)cc1)C2=O
RP-LC retention time: 855 s

Cc1nnc2ccc(-c3noc(-c4ccccc4)n3)cn12
RP-LC retention time: 867 s

CCOC(=O)c1c(C)[nH]c(C(=O)N2CCC(CC(=O)NCc3ccccc3)CC2)c1C
RP-LC retention time: 762 s

CCn1ccc(C(=O)N2CC(Oc3cccc(-c4nc(C)no4)c3)C2)n1
RP-LC retention time: 808 s

Cc1ccccc1NC(=O)CN1C(=O)CC(c2ccccc2)S(=O)(=O)c2ccccc21 (centres undefined)
RP-LC retention time: 894 s

CC(NC(=O)C1CCN(c2cncnc2N2CCCCC2)CC1)c1ccc(F)cc1 (centres undefined)
RP-LC retention time: 715 s

CCOc1ccc(N(Cc2nc3nc(C)cc(C)n3n2)C(=O)c2ccco2)cc1
RP-LC retention time: 754 s

COc1ccc(C2CC(=O)N(c3ccc(F)cc3F)C(=O)C2)cc1OC
RP-LC retention time: 870 s

O=C([C@H]1C[C@@H](F)CN1S(=O)(=O)c1ccc(C(F)(F)F)cc1)N1CCOCC1
RP-LC retention time: 738 s

Cc1ccc(NC(=O)Cn2nc3c(N4CC(C)CC(C)C4)nccn3c2=O)cc1 (centres undefined)
RP-LC retention time: 884 s

Cc1ccc(OCc2nnc(SCC(=O)Nc3nc(-c4ccccc4)cs3)o2)cc1
RP-LC retention time: 875 s

CCC(NC(=O)C1CCCN(c2cnc3nccnc3c2)C1)c1ccc(OC)cc1 (centres undefined)
RP-LC retention time: 735 s

Cc1nn(C)c(C)c1CCNC(=O)Nc1cccc(Br)c1
RP-LC retention time: 677 s

CCOCc1nc(C2CCCN2S(=O)(=O)c2c(C)nn(C)c2C)no1 (centres undefined)
RP-LC retention time: 691 s

COC(=O)C1=CN(C2CC2)c2cc(N3CCN(c4ccccc4OC)CC3)c(F)cc2S1(=O)=O
RP-LC retention time: 904 s

CC1CN(C(=O)CSc2cn(CC(=O)N(C(C)C)C(C)C)c3ccccc23)CC(C)O1 (centres undefined)
RP-LC retention time: 959 s

CS(=O)(=O)N1CCN(C(=O)CCCn2nc(-c3ccc(F)cc3)ccc2=O)CC1
RP-LC retention time: 652 s

CCC(C(=O)NCCN(C)C)n1c2ccccc2c2cnn(C)c(=O)c21 (centres undefined)
RP-LC retention time: 618 s

COc1ccc(C2CC(=O)c3cnn(-c4nc5ccccc5[nH]4)c3C2)c(OC)c1 (centres undefined)
RP-LC retention time: 649 s

Cc1ccccc1-n1c(=O)c2sccc2n(Cc2nc(-c3ccc(Br)cc3)no2)c1=O
RP-LC retention time: 1120 s

O=C(Nc1ccc(-c2nc3ccccc3[nH]2)cc1)c1ccccc1[N+](=O)[O-]
RP-LC retention time: 574 s

Cc1cc(C(F)(F)F)nn1CC(=O)NCC1Cn2cccc2CN1C (centres undefined)
RP-LC retention time: 726 s

CCCN1CCN(C(=O)CC2Sc3ncccc3N(C)C2=O)CC1 (centres undefined)
RP-LC retention time: 576 s

CC(C)(C)NC(=O)c1ccc(C(=O)NC(C)(C)C)cc1
RP-LC retention time: 840 s

O=C(c1ccccc1)N1CCCc2cc(NS(=O)(=O)c3ccccc3Cl)ccc21
RP-LC retention time: 816 s

CC(C)NC(=O)N(C1CCOCC1)C1CN(C(=O)c2cncc(Br)c2)C1
RP-LC retention time: 604 s

CS(=O)(=O)N[C@H]1C[C@@H]2C[C@H]1CN2C(=O)c1ccc(C(F)(F)F)s1
RP-LC retention time: 663 s

Cc1oc(-c2cccs2)nc1COc1cc(C)c2c(C)nn(C)c2n1
RP-LC retention time: 1060 s

Cc1nn(CC(=O)NCC2CCCO2)c(=O)c2c(-n3cccc3)n(-c3cccc(F)c3)nc12 (centres undefined)
RP-LC retention time: 818 s

O=C(NCCc1cccs1)C1CCN(Cc2cc3ccccc3n2Cc2ccc(Cl)cc2)CC1
RP-LC retention time: 846 s

COc1ccc(NC(=O)N2CCCC(Cn3cnc4cccnc43)C2)c(OC)c1 (centres undefined)
RP-LC retention time: 651 s

CCOC(=O)CNC(=O)N1CCC2(CC1)NC(=O)c1ccccc1O2
RP-LC retention time: 630 s

Cn1c(CNC(=O)c2cn3ccccc3n2)nc2ccccc21
RP-LC retention time: 564 s

CCc1ccccc1NS(=O)(=O)c1cc(-c2[nH]ncc2C(=O)N2CCCC2)oc1C
RP-LC retention time: 749 s

CCn1cc(-c2nc(-c3cc(OC)cc(OC)c3)no2)c(=O)c2cc(F)c(N3CCOCC3)cc21
RP-LC retention time: 957 s

Cc1cc2nn(CC(=O)NCc3ccccc3)c(=O)n2c(-c2ccc(F)cc2)n1
RP-LC retention time: 781 s

Clc1ccc(-c2noc3ncnc(N4CCN(c5ccccn5)CC4)c23)cc1
RP-LC retention time: 697 s

Cc1ccc(NC(=O)N2CCCN(c3ccc(=O)n(-c4ccccc4)n3)CC2)cc1
RP-LC retention time: 820 s

O=C(NCCC1=CCCCC1)c1cnc(-c2ccccc2)nc1-c1ccncc1
RP-LC retention time: 966 s

CCCN(CC1CCOC1)C(=O)c1ccc(F)c(F)c1 (centres undefined)
RP-LC retention time: 787 s

COc1ccc(-c2csc(NC(=O)Cc3csc(-c4ccccc4)n3)n2)cc1
RP-LC retention time: 1090 s

Cc1noc(-c2cccn2Cc2ccccc2Cl)n1
RP-LC retention time: 1110 s

Cc1nc(C)c(CCNS(=O)(=O)c2cc(Cl)ccc2Cl)s1
RP-LC retention time: 683 s

N#CCCN(C(=O)c1noc2c1CCCC2)c1ccccc1
RP-LC retention time: 827 s

CC(=O)N1c2ccc(S(=O)(=O)N3CCCCCC3)cc2CC1C(=O)NCc1ccc(Cl)cc1 (centres undefined)
RP-LC retention time: 951 s

CCc1ccc(CNC(=O)C2CCCN(c3ccc(=O)n(-c4cccc(F)c4)n3)C2)cc1 (centres undefined)
RP-LC retention time: 937 s

CC1(C)CC(=O)c2cn(-c3ccc(Cl)cc3)c(=O)c(C(=O)N3CCC(N4CCCCC4)CC3)c2C1
RP-LC retention time: 667 s

CCc1cc(C(=O)N2CCN(C(C)C)CC2)nc2cc(-c3ccccn3)nn12
RP-LC retention time: 650 s

COC(=O)c1ncn2c1C(=O)N(c1ccc(C)c(C)c1)C(C)(C(=O)NC1CCCC1)C2 (centres undefined)
RP-LC retention time: 750 s

Cc1ccc(N2CCC(NC(=O)Nc3cccc(C)c3)C2=O)cc1 (centres undefined)
RP-LC retention time: 862 s

Cc1cc(C)n(-c2ccc(SCc3ccccc3Cl)nn2)n1
RP-LC retention time: 1150 s

CCOc1ccccc1NC(=O)c1cnc(-c2ccccc2)nc1-c1ccncc1
RP-LC retention time: 978 s

Cc1ccc2[nH]cc(CCN3CC(C(=O)Nc4ccc5c(c4)CCC5)CC3=O)c2c1 (centres undefined)
RP-LC retention time: 925 s

CCOC(=O)C1CCN(Cc2nnn(-c3ccccc3)c2C)CC1
RP-LC retention time: 614 s

CCOC(=O)C1CCCN(c2ccc3nnc(CCc4nc(-c5ccccc5C)no4)n3n2)C1 (centres undefined)
RP-LC retention time: 1030 s

O=C(Cc1ccccc1)N1CCCC1c1nc(-c2ccccc2Cl)no1 (centres undefined)
RP-LC retention time: 994 s
